# In US8945518B2, “Formulation of dual eicosanoid system and cytokine system inhibitors for use in the prevention and treatment of oral diseases and conditions” (Unigen, Inc., priority 2002, dated 2015):
# pIC50: −log10 of the molar value.
# Assays:
# recombinant ovine COX-1 = molecular target: T1, recombinant ovine COX-1 (Ovis aries, UniProt P05979); assay: COX-1 peroxidase activity inhibition (TMPD, 96-well); assay type: biochemical
# T1 sequence (P05979 25-600): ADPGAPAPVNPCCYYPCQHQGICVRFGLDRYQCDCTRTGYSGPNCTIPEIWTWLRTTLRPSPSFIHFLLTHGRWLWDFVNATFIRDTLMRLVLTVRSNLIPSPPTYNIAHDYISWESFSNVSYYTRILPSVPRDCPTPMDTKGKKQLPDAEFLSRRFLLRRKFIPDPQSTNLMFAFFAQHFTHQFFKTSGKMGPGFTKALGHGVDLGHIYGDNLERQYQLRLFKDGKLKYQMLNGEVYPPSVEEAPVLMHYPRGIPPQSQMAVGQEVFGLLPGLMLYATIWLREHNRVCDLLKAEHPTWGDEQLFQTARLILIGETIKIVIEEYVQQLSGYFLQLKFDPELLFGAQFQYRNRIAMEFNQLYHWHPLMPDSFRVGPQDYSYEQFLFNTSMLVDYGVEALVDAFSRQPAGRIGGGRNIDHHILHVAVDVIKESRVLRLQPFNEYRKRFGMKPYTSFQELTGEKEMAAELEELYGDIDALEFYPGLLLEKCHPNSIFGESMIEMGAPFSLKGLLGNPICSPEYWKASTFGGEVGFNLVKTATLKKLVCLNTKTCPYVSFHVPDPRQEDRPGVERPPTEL
# Source text: (§1) In order to screen for compounds that inhibited the COX-1 and COX-2 activities, a high throughput, in vitro assay was developed that utilized the inhibition of the peroxidase activity of both enzymes. […] Briefly, the composition or compound being examined was titrated against a fixed amount of COX-1 and COX-2 enzymes. A cleavable, peroxide chromophore was included in the assay to visualize the peroxidase activity of each enzyme in presence of arachidonic acid as a cofactor. Typically, assays were performed in a 96-well format. Each inhibitor, taken from a 10 mg/mL stock solution in 100% DMSO, was tested in triplicate at room temperature using the following range of concentrations: 0, 0.1, 1, 5, 10, 20, 50, 100, and 500 μg/mL. […] The components were mixed for 10 seconds on a rotating platform, followed by the addition of 20 μL of 2 mM N,N,N′N′-tetramethyl-p-phenylenediamine dihydrochloride (TMPD) and 20 μL of 1.1 mM arachidonic acid to initiate the reaction. The plate was shaken for 10 seconds and then incubated 5 minutes before reading the absorbance at 570 nm. The inhibitor concentration vs. % inhibition was plotted and the IC50 determined by taking the half-maximal point along the isotherm and intersecting the concentration on the X-axis. The IC50 was then normalized to the number of enzyme units in the assay.
# recombinant ovine COX-2 = molecular target: T2, recombinant ovine COX-2 (Ovis aries, UniProt P79208); assay: COX-2 peroxidase activity inhibition (TMPD, 96-well); assay type: biochemical; conditions: IC50 normalized to enzyme units
# T2 sequence (P79208 17-603): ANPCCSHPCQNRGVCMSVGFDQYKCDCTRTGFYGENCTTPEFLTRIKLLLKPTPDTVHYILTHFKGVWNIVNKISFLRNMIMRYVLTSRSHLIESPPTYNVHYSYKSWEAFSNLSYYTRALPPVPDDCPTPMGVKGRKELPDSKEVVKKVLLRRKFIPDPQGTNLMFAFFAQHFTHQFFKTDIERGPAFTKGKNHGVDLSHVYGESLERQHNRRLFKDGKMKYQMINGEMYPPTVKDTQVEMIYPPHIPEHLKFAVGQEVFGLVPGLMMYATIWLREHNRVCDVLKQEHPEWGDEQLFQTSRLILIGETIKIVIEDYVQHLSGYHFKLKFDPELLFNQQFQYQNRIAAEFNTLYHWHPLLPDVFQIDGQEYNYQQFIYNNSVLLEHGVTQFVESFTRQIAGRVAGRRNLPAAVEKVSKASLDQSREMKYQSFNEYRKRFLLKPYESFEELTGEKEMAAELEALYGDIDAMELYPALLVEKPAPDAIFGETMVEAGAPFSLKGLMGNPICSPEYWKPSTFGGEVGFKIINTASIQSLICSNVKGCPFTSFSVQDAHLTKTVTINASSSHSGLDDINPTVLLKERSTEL
# Source text: as §1
# [1] = Stability of catechin in solution; assay type: physicochemical
# Protocol: A total of 6 different conditions (not including control solution) were chosen for this stability investigation at 45° C. Aqueous K2HPO4 (0.5 M) or KH2PO4 (0.5 M) was utilized to make buffered solutions at pH 5 or 8, respectively. […] All seven solutions were stored in sealed bottles at 45° C.
# All eight solutions were stored in sealed bottles at 45° C.
# [2] = Oxygen Radical Absorption Capacity (ORAC)
# [3] = tested on: prostaglandin endoperoxide synthase; conditions: Kalkbrenner et al. (1992); cited from earlier work
# [4] = tested on: cox-2 gene transcription in human colon cancer DLD-1 cells; conditions: Mutoh et al. (2000), read-out: IC50, suppression of cox-2 gene transcription; cited from earlier work
# [5] = literature studies of bioavailability; cited from earlier work
# [6] = tested on: newly synthesized LTB4 (5-LOX pathway) in HT-29 cells; assay: LTB4 competitive ELISA in HT-29 cells; assay type: cell-based; conditions: Homo sapiens, 3 μg/mL, 48 hrs
# Protocol: A competitive ELISA for Leukotriene B4 (LTB4; Neogen, Inc., Cat#406110) was used to assess the effect of this UP676 formulation on newly synthesized levels of LTB4 present in each cell line as a measure UP676's inhibitory effect on the 5-LOX pathway. The assay was performed in duplicate by adding 160,000 to 180,000 cells per well in 6-well plates. […] Each treated cell line was then harvested by centrifugation and disrupted by gentle dounce homogenization lysis in physiological buffers.
# COX-1 and COX-2 enzymes = conditions: cited from earlier work
compound,measurement,setting,value
O=C(O)[C@H]1O[C@@H](Oc2cc3oc(-c4ccccc4)cc(=O)c3c(O)c2O)[C@H](O)[C@@H](O)[C@@H]1O [Baicalin],IC50 for COX-1,"recombinant ovine COX-1; peroxidase activity, IC50 normalized to enzyme units",0.44 μg/mL/unit of enzyme
same,IC50 for COX-2,recombinant ovine COX-2,0.28 μg/mL/unit
Oc1cc(O)c2c(c1)OC(c1ccc(O)c(O)c1)C(O)C2 (stereo not drawn) [Catechin],selectivity against the COX-1 enzyme,"recombinant ovine COX-1; catechin in the UP676 formulation, COX-1 over COX-2",2.3 fold
same,"stability of catechin in solution, basic conditions or metal ions",[1]; basic conditions or metal ions such as Fe3+,not under basic conditions or when exposed to metal ions
same,"stability of catechin in solution, neutral conditions","[1]; neutral conditions, 4° C. and 40° C.",stable
same,"stability of catechin in solution, weakly basic",[1]; pH=7.5,decomposes
same,Oxygen Radical Absorption Capacity (ORAC),[2],"20,000"
same,pIC50,[3],4.40
same,pIC50,[4],3.38
same,half life,[5],2 h
"CC(C)Cc1ccc(C(C)C(=O)O)cc1 (stereo not drawn) [Ibuprofen, ibuprofen]",inhibition at 3 µg/mL,[6],20%
CC(=O)Oc1ccccc1C(=O)O [aspirin],times more potent against COX-1 than COX-2,COX-1 and COX-2 enzymes,more than 150 times
